Assay results reported in PubChem BioAssay (NCI).
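Five compound concentrations were applied to cells in 96-well plates for 48 hours; endpoints were derived by simple linear interpolation of the resulting dose-response curve. GI50 marks 50% less growth. TGI marks complete inhibition of growth.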

Legend:
Assay in all cases: NCI tumour cell line growth inhibition, 48 h
[1] = test system: OVCAR-8 ovarian
[2] = test system: HOP-62 NSCLC
[3] = test system: NCI-H522 lung
[4] = test system: SF-295 CNS
[5] = test system: PC-3 prostate
[6] = test system: SK-MEL-5 melanoma
[7] = test system: CAKI-1 renal
[8] = test system: CCRF-CEM leukemia
[9] = test system: SK-OV-3 ovarian
[10] = test system: MDA-MB-231 breast
[11] = test system: SNB-19 CNS
[12] = test system: IGROV1 ovarian
[13] = test system: KM12 colon
[14] = test system: SR leukemia
[15] = test system: BT-549 breast
[16] = test system: SN12C renal
[17] = test system: UACC-257 melanoma
[18] = test system: EKVX NSCLC
[19] = test system: LOX IMVI melanoma
[20] = test system: HCC-2998 colon
[21] = test system: SF-268 CNS
[22] = test system: NCI/ADR-RES ovarian
[23] = test system: OVCAR-4 ovarian
[24] = test system: SK-MEL-28 melanoma
[25] = test system: SW-620 colon
[26] = test system: T-47D breast
[27] = test system: NCI-H226 lung
[28] = test system: TK-10 renal
[29] = test system: MALME-3M melanoma
[30] = test system: SK-MEL-2 melanoma
[31] = test system: NCI-H460 lung
[32] = test system: MCF7 breast
[33] = test system: A498 renal
[34] = test system: RPMI-8226 leukemia
[35] = test system: HCT-116 colon
[36] = test system: HOP-92 NSCLC
[37] = test system: SNB-75 CNS
[38] = test system: 786-0 renal
[39] = test system: UO-31 renal
[40] = test system: MOLT-4 leukemia
[41] = test system: HL-60(TB) leukemia
[42] = test system: HCT-15 colon
[43] = test system: OVCAR-5 ovarian
[44] = test system: K-562 leukemia
[45] = test system: COLO 205 colon
[46] = test system: OVCAR-3 ovarian
[47] = test system: HT29 colon
[48] = test system: U251 CNS
[49] = test system: DU-145 prostate
[50] = test system: HS 578T breast
[51] = test system: NCI-H23 lung
[52] = test system: A549 NSCLC
[53] = test system: MDA-MB-435
[54] = test system: SF-539 CNS
[55] = test system: RXF 393 renal
[56] = test system: UACC-62 melanoma
[57] = test system: ACHN renal
[58] = test system: M14 melanoma

CC1=C2C(=C[C@@](C)(COC(=O)c3ccc(S(=O)(=O)F)cc3)[C@@H]2O)C(=O)[C@](C)(O)C12CC2
GI50 [1]: 0.903 µM | TGI [1]: 3.62 µM | GI50 [2]: 2.55 µM | TGI [2]: 13.8 µM | GI50 [3]: 0.745 µM | TGI [3]: 2.53 µM | GI50 [4]: 2.14 µM | TGI [4]: 8.2 µM | GI50 [5]: 1.71 µM | TGI [5]: > 29.1 µM | GI50 [6]: 1.49 µM | TGI [6]: 3.51 µM | GI50 [7]: 0.631 µM | TGI [7]: 2.45 µM | GI50 [8]: 3.21 µM | TGI [8]: > 28 µM | GI50 [9]: 2.52 µM | TGI [9]: 7.89 µM | GI50 [10]: 1.35 µM | TGI [10]: 6.62 µM | GI50 [11]: 1.82 µM | TGI [11]: 10.4 µM | GI50 [12]: 0.941 µM | TGI [12]: 5.06 µM | GI50 [13]: 4.28 µM | TGI [13]: 24.9 µM | GI50 [14]: 1.36 µM | TGI [14]: > 22.6 µM | GI50 [15]: 1.22 µM | TGI [15]: 2.84 µM | GI50 [16]: 1.2 µM | TGI [16]: 5.46 µM | GI50 [17]: 2.05 µM | TGI [17]: 4.78 µM | GI50 [18]: 2.42 µM | TGI [18]: 6.47 µM | GI50 [19]: 0.588 µM | TGI [19]: 2.22 µM | GI50 [20]: 0.945 µM | TGI [20]: 2.71 µM | GI50 [21]: 1.06 µM | TGI [21]: 6.13 µM | GI50 [22]: 0.815 µM | TGI [22]: 3.97 µM | GI50 [23]: 1.69 µM | TGI [23]: 4.39 µM | GI50 [24]: 0.556 µM | TGI [24]: 2.05 µM | GI50 [25]: 1.97 µM | TGI [25]: 8.79 µM | GI50 [26]: 2.06 µM | TGI [26]: 18.8 µM | GI50 [27]: 2.3 µM | TGI [27]: 9.14 µM | GI50 [28]: 2.51 µM | TGI [28]: 6.47 µM | GI50 [29]: 0.785 µM | TGI [29]: 2.33 µM | GI50 [30]: 0.613 µM | TGI [30]: 1.29 µM | GI50 [31]: 0.614 µM | TGI [31]: 1.87 µM | GI50 [32]: 0.596 µM | TGI [32]: 9.31 µM | GI50 [33]: 2.27 µM | TGI [33]: 5.62 µM | GI50 [34]: 24.5 µM | TGI [34]: > 74.2 µM | GI50 [35]: 0.587 µM | TGI [35]: 2.5 µM | GI50 [36]: 2.17 µM | TGI [36]: 6.01 µM | GI50 [37]: 1.49 µM | TGI [37]: 3.07 µM | GI50 [38]: 2.15 µM | TGI [38]: 7.93 µM | GI50 [39]: 1.61 µM | TGI [39]: 3.09 µM | GI50 [40]: 2.02 µM | TGI [40]: > 25.8 µM | GI50 [41]: 0.566 µM | TGI [41]: 5.91 µM | GI50 [42]: 0.424 µM | TGI [42]: 2.24 µM | GI50 [43]: 0.982 µM | TGI [43]: 5.12 µM | GI50 [44]: 3.41 µM | TGI [44]: > 100 µM | GI50 [45]: 0.951 µM | TGI [45]: 2.72 µM | GI50 [46]: 0.906 µM | TGI [46]: 3.8 µM | GI50 [47]: 0.498 µM | TGI [47]: 2.67 µM | GI50 [48]: 1.4 µM | TGI [48]: > 25.1 µM | GI50 [49]: 0.522 µM | TGI [49]: 3.04 µM | GI50 [50]: 2.42 µM | TGI [50]: 9.57 µM | GI50 [51]: 1 µM | TGI [51]: 3.62 µM | GI50 [52]: 2.87 µM | TGI [52]: > 26.1 µM | GI50 [53]: 1.17 µM | TGI [53]: 2.98 µM | GI50 [54]: 1.86 µM | TGI [54]: 3.71 µM | GI50 [55]: 0.522 µM | TGI [55]: 1.23 µM | GI50 [56]: 0.894 µM | TGI [56]: 2.56 µM | GI50 [57]: 0.541 µM | TGI [57]: 1.73 µM

CC(C)C(=O)Nc1ccc(-c2nc(-c3cccc(O)c3)c(-c3ccnc(Br)c3)[nH]2)cc1
GI50 [1]: 1.28 µM | TGI [1]: 18.6 µM | GI50 [2]: 1.82 µM | TGI [2]: 35.2 µM | GI50 [3]: 1.24 µM | TGI [3]: 9.03 µM | GI50 [4]: 0.204 µM | TGI [4]: 0.457 µM | GI50 [5]: 0.877 µM | TGI [5]: 8.21 µM | GI50 [6]: 1.1 µM | TGI [6]: 3.24 µM | GI50 [7]: 0.932 µM | TGI [7]: 9.12 µM | GI50 [8]: 0.653 µM | TGI [8]: > 100 µM | GI50 [9]: 1.89 µM | TGI [9]: 10.6 µM | GI50 [10]: 1.61 µM | TGI [10]: 36.3 µM | GI50 [11]: 1.47 µM | TGI [11]: 61.2 µM | GI50 [12]: 0.962 µM | TGI [12]: 5.83 µM | GI50 [13]: 1.29 µM | TGI [13]: 21.7 µM | GI50 [14]: 1.19 µM | TGI [14]: > 100 µM | GI50 [15]: 1.09 µM | TGI [15]: 7.25 µM | GI50 [16]: 1.49 µM | TGI [16]: 34.8 µM | GI50 [17]: 3.47 µM | TGI [17]: 24.2 µM | GI50 [18]: 1.84 µM | TGI [18]: 25.6 µM | GI50 [19]: 0.404 µM | TGI [19]: 5.71 µM | GI50 [20]: 1.38 µM | TGI [20]: 6.71 µM | GI50 [21]: 2.83 µM | TGI [21]: 40 µM | GI50 [22]: 18 µM | TGI [22]: > 100 µM | GI50 [23]: 2.85 µM | TGI [23]: 27.7 µM | GI50 [24]: 1.75 µM | TGI [24]: 23.5 µM | GI50 [25]: 1.4 µM | TGI [25]: 16.2 µM | GI50 [26]: 1.09 µM | TGI [26]: 9.59 µM | GI50 [27]: 1.78 µM | TGI [27]: 8.95 µM | GI50 [28]: 5.88 µM | TGI [28]: 36.8 µM | GI50 [29]: 0.919 µM | TGI [29]: 4.9 µM | GI50 [30]: 1.64 µM | TGI [30]: 9.81 µM | GI50 [31]: 1.45 µM | TGI [31]: 9.01 µM | GI50 [32]: 0.566 µM | TGI [32]: 4.51 µM | GI50 [33]: 0.957 µM | TGI [33]: 5.55 µM | GI50 [34]: 0.83 µM | TGI [34]: 2.43 µM | GI50 [35]: 0.905 µM | TGI [35]: 7.68 µM | GI50 [36]: 2.17 µM | TGI [36]: 7.27 µM | GI50 [37]: 0.529 µM | TGI [37]: 2.6 µM | GI50 [38]: 0.718 µM | TGI [38]: 7.63 µM | GI50 [39]: 1.04 µM | TGI [39]: 4.59 µM | GI50 [40]: 0.835 µM | TGI [40]: 7.98 µM | GI50 [41]: 0.768 µM | TGI [41]: 2.74 µM | GI50 [58]: 0.764 µM | TGI [58]: 8.13 µM | GI50 [42]: 1.26 µM | TGI [42]: 9.76 µM | GI50 [43]: 2.36 µM | TGI [43]: 59.1 µM | GI50 [44]: 0.601 µM | TGI [44]: > 100 µM | GI50 [45]: 1.47 µM | TGI [45]: 6.94 µM | GI50 [46]: 1.09 µM | TGI [46]: 6.6 µM | GI50 [47]: 1.4 µM | TGI [47]: > 60.1 µM | GI50 [48]: 1.1 µM | TGI [48]: 47.9 µM | GI50 [49]: 2.54 µM | TGI [49]: 41.3 µM | GI50 [50]: 0.592 µM | TGI [50]: 2.32 µM | GI50 [51]: 1.19 µM | TGI [51]: 12.9 µM | GI50 [52]: 1.64 µM | TGI [52]: 23.6 µM | GI50 [53]: 4.24 µM | TGI [53]: 20.6 µM | GI50 [54]: 0.685 µM | TGI [54]: 2.89 µM | GI50 [55]: 0.37 µM | TGI [55]: 1.32 µM | GI50 [56]: 0.758 µM | TGI [56]: 5.37 µM | GI50 [57]: 1.7 µM | TGI [57]: 26.6 µM
